Measured values: US9458176B2, “Tetrahydroimidazo(1,5-D)[1,4]oxazepine derivative” (Eisai R&D Management Co., Ltd., priority 2013, dated 2016)

Target: human mGluR2 (Homo sapiens (Human), UniProt Q14416)
Experiment: [35S]GTPγS binding assay (Affinity to mGluR2)
Type: biochemical
Details: cell membrane fraction of HEK293 cells stably expressing human mGluR2, glutamic acid 10 μM
Procedure, shortened: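 Membranes from HEK293 cells stably co-expressing human mGluR2 and SLC1A3 (1.8–3 μg protein) preincubated with compound 30 min at RT, then stimulated with 10 μM glutamate 15 min; [35S]GTPγS (0.8 kBq) with WGA-SPA beads 1 h, buffer with 3 μM GDP, 100 mM NaCl, 1 mM MgCl2. IC50 from inhibition of glutamate-specific binding.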

[1] = inhibition of specific [35S]GTPγS binding

human mGluR2, sequence (Q14416 19-872): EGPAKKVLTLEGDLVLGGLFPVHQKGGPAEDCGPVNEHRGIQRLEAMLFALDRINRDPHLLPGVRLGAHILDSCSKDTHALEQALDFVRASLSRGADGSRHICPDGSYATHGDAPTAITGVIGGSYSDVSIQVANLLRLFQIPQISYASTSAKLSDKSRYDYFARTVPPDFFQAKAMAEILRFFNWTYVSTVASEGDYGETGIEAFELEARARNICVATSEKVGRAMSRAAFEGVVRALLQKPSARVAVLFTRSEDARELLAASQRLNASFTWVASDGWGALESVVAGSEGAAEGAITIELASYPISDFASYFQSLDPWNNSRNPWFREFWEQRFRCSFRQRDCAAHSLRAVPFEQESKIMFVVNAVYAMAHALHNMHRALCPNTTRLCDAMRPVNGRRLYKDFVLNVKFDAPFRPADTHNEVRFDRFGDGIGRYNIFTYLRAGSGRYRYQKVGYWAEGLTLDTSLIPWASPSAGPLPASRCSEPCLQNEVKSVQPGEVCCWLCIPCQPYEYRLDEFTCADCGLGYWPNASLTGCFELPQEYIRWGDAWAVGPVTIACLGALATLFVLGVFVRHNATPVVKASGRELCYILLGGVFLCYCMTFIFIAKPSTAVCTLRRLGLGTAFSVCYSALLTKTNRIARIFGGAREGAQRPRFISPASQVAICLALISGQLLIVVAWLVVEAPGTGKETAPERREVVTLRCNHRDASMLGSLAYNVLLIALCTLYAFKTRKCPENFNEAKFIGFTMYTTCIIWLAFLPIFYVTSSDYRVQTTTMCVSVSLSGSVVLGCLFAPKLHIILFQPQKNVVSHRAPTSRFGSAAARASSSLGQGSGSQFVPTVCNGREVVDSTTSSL

IC50 [nM]	IC50 [1] [nM]	Structure (SMILES)
	19.5	Cc1cc(-c2nc(-c3ccc(F)c(OC(F)F)c3)n3c2CCO[C@H](C)C3)ccn1 [Example 185]
	48	CCOc1ccc(-c2nc(-c3cc(C)nc(C)c3)c3n2CCOCC3)cc1Cl [Example 216]
	9.4	Cc1cc(-c2nc(-c3ccc(OC(F)(F)F)c(F)c3)n3c2CCO[C@H](CF)C3)cc(C)n1 [Example 165]
	4.7	Cc1cc(-c2nc(-c3ccc(OC4CC4)c(C)c3)n3c2CCO[C@H](C)C3)cc(CF)n1 [Example 208]
	4.6	Cc1cc(-c2nc(-c3ccc(OC(F)(F)F)c(C#N)c3)n3c2CCO[C@H](C)C3)ccn1 [Example 169]
	1.8	Cc1cc(-c2nc(-c3ccc(OC4CC4)c(Cl)c3)n3c2CCO[C@H](CF)C3)cc(C)n1 [Example 167]
	18	Cc1cc(-c2nc(-c3ccc(OC(F)(F)F)c(CO)c3)n3c2CCO[C@H](C)C3)cc(C)n1 [Example 229]
	19.3	Cc1cc(-c2nc(-c3ccc(C(F)(F)F)c(C)c3)n3c2CCO[C@H](CF)C3)ccn1 [Example 187]
	1.9	Cc1cc(-c2nc(-c3ccc(OC(F)F)c(CF)c3)n3c2CCO[C@H](C)C3)cc(C)n1 [Example 234]
	100	Cc1cc(-c2nc(-c3ccc(OC(F)(F)F)c(F)c3)n3c2CCO[C@H](C)C3)cc(CO)n1 [Example 180]
	2.4	Cc1cc(-c2nc(-c3ccc(OC(F)(F)F)c(CF)c3)n3c2CCO[C@H](C)C3)cc(C)n1 [Example 231]
	21	CCOc1cc(-c2nc(-c3ccnc(C)c3)c3n2CCOCC3)ccc1CC [Example 214]
	27.1	Cc1cc(-c2nc(-c3ccc(OC(F)(F)F)c(CF)c3)n3c2CCOCC3)cc(C)n1 [Example 211]
	5	COc1cc(-c2nc(-c3cc(C)nc(C(F)F)c3)c3n2C[C@@H](C)OCC3)ccc1OC(F)F [Example 192]
	26.7	Cc1cc(-c2nc(-c3ccc(F)c(Cl)c3)n3c2CCO[C@H](CF)C3)cc(C)n1 [Example 171]
	6	Cc1cc(-c2nc(-c3ccc(OC(F)F)c(C)c3)n3c2CCO[C@H](CF)C3)cc(CF)n1 [Example 207]
	2.9	CCOc1ccc(-c2nc(-c3cc(C)nc(C)c3)c3n2C[C@@H](C)OCC3)cc1C [Example 241]
	42.2	COc1ccc(-c2nc(-c3cc(C)nc(C(F)F)c3)c3n2C[C@@H](C)OCC3)cc1Cl [Example 190]

The remaining lines, values behind:

Structure (SMILES)	IC50 [nM]	IC50 [1] [nM]
Cc1cc(-c2nc(-c3ccc(Cl)c(OC(F)(F)F)c3)n3c2CCO[C@H](C)C3)cc(C)n1 [Example 68]	13.2	
COc1cc(-c2nc(-c3cc(C)nc(C(F)F)c3)c3n2C[C@@H](CF)OCC3)ccc1C(F)(F)F [Example 31, (S)-1-(2-(difluoromethyl)-6-methylpyridin-4-yl)-6-(fluoromethyl)-3-(3-methoxy-4-(trifluoromethyl)phenyl)-5,6,8,9-tetrahydroimidazo[1,5-d][1,4]oxazepine]	7.9	
CC[C@@H]1Cn2c(-c3ccc(Cl)c(OC)c3)nc(-c3ccnc(C)c3)c2CCO1 [Example 78]	3.8	
COc1ccc(-c2nc(-c3cc(C)nc(C)c3)c3n2C[C@@H](C)OCC3)cc1OC(F)(F)F [Example 154]		6.7
COc1ccc(-c2nc(-c3cc(C)nc(C)c3)c3n2C[C@@H](CF)OCC3)cc1Cl [Example 36, (S)-3-(3-chloro-4-methoxyphenyl)-1-(2,6-dimethylpyridin-4-yl)-6-(fluoromethyl)-5,6,8,9-tetrahydroimidazo[1,5-d][1,4]oxazepine]	10	
Cc1cc(-c2nc(-c3ccc(Cl)c(C(F)(F)F)c3)n3c2CCO[C@H](C)C3)cc(C)n1 [Example 140]	5.7	
Cc1cc(-c2nc(-c3ccc(Cl)c(Cl)c3)n3c2CCO[C@H](C)C3)cc(C)n1 [Example 65]	14	
Cc1cc(-c2nc(-c3ccc(Cl)c(Cl)c3)n3c2CCOCC3)cc(C)n1 [Example 103]	26	
Cc1cc(-c2nc(-c3ccc(OC4CC4)c(OC(F)(F)F)c3)n3c2CCOCC3)cc(C)n1 [Example 144]		27.7
Cc1cc(-c2nc(-c3ccc(C(F)(F)F)c(C)c3)n3c2CCO[C@H](C)C3)cc(C)n1 [Example 124]	4.5	
COc1cc(-c2nc(-c3ccnc(C)c3)c3n2C[C@@H](CF)OCC3)ccc1C [Example 72]	29.4	
COc1cc(-c2nc(-c3cc(C)nc(C)c3)c3n2C[C@@H](C)OCC3)ccc1C(F)F [Example 128]	9.1	
Cc1cc(-c2nc(-c3ccc(OC(F)(F)F)cc3)n3c2CCO[C@H](C)C3)cc(CF)n1 [Example 86]	4.4	
Cc1cc(-c2nc(-c3ccc(F)c(OC(F)(F)F)c3)n3c2CCO[C@H](C)C3)ccn1 [Example 158]		44.6
Cc1cc(-c2nc(-c3ccc(OC(F)(F)F)c(C#N)c3)n3c2CCOCC3)cc(C)n1 [Example 116]	33.8	
Cc1cc(-c2nc(-c3ccc(Cl)c(C)c3)n3c2CCO[C@H](CF)C3)ccn1 [Example 74]	35.3	
COc1cc(-c2nc(-c3ccnc(C)c3)c3n2C[C@@H](CF)OCC3)ccc1OC(F)F [Example 164]		36.8
COc1cc(-c2nc(-c3cc(C)nc(C)c3)c3n2C[C@@H](C)OCC3)ccc1C [Example 53]	21.3	
CCc1ccc(-c2nc(-c3ccnc(C)c3)c3n2C[C@@H](C)OCC3)cc1OC [Example 101]	7.6	
Cc1cc(-c2nc(-c3ccc(OC4CC4)c(C)c3)n3c2CCO[C@H](C)C3)cc(C)n1 [Example 20, (R)-3-(4-cyclopropoxy-3-methylphenyl)-1-(2,6-dimethylpyridin-4-yl)-6-methyl-5,6,8,9-tetrahydroimidazo[1,5-d][1,4]oxazepine]	3.4	
Cc1cc(-c2nc(-c3ccc(F)c(OC(F)(F)F)c3)n3c2CCO[C@H](C)C3)cc(C)n1 [Example 157]		12.7

Structure (SMILES)	IC50 [nM]	IC50 [1] [nM]
Cc1cc(-c2nc(-c3ccc(C(F)(F)F)c(Cl)c3)n3c2CCO[C@H](C)C3)cc(C)n1 [Example 129]	15.7	
COc1cc(-c2nc(-c3cc(C)nc(C)c3)c3n2C[C@@H](C)OCC3)ccc1OC(F)(F)F [Example 25, (R)-1-(2,6-dimethylpyridin-4-yl)-3-(3-methoxy-4-(trifluoromethoxy)phenyl)-6-methyl-5,6,8,9-tetrahydroimidazo[1,5-d][1,4]oxazepine]	3.2	
Cc1cc(-c2nc(-c3ccc(OC(F)(F)F)c(F)c3)n3c2CCOCC3)cc(C)n1 [Example 106]	20.9	
COc1cc(-c2nc(-c3ccnc(C)c3)c3n2C[C@@H](CF)OCC3)ccc1Cl [Example 26, (S)-3-(4-chloro-3-methoxyphenyl)-6-fluoromethyl-1-(2-methylpyridin-4-yl)-5,6,8,9-tetrahydroimidazo[1,5-d][1,4]oxazepine]	13.5	
Cc1cc(-c2nc(-c3ccc(OC4CC4)c(Cl)c3)n3c2CCO[C@H](C)C3)ccn1 [Example 159]		5
Cc1cc(-c2nc(-c3ccc(Cl)c(F)c3)n3c2CCO[C@H](C)C3)ccn1 [Example 58]	41.8	
COc1cc(-c2nc(-c3ccnc(C)c3)c3n2C[C@@H](CF)OCC3)ccc1OC(F)(F)F [Example 17, (S)-6-(fluoromethyl)-3-(3-methoxy-4-(trifluoromethoxy)phenyl)-1-(2-methylpyridin-4-yl)-5,6,8,9-tetrahydroimidazo[1,5-d][1,4]oxazepine]	3.8	
COc1cc(-c2nc(-c3ccnc(C)c3)c3n2CCOCC3)ccc1C(F)(F)F [Example 123]	36	
Cc1cc(-c2nc(-c3ccc(OC(F)(F)F)c(C)c3)n3c2CCO[C@H](C)C3)cc(C)n1 [Example 67]	4.7	
COc1cc(-c2nc(-c3ccnc(C)c3)c3n2C[C@@H](C)OCC3)ccc1F [Example 141]		51.9
COc1cc(-c2nc(-c3cc(C)nc(C)c3)c3n2C[C@@H](C)OCC3)ccc1F [Example 136]	33.9	
Cc1cc(-c2nc(-c3ccc(Cl)c(C)c3)n3c2CCOCC3)cc(C)n1 [Example 110]	64.2	
Cc1cc(-c2nc(-c3ccc(OC(F)F)c(C)c3)n3c2CCO[C@H](CF)C3)cc(C)n1 [Example 27, (S)-3-(4-(difluoromethoxy)-3-methylphenyl)-1-(2,6-dimethylpyridin-4-yl)-6-(fluoromethyl)-5,6,8,9-tetrahydroimidazo[1,5-d][1,4]oxazepine]	3.5	
Cc1cc(-c2nc(-c3ccc(Cl)c(C)c3)n3c2CCO[C@H](CF)C3)cc(C)n1 [Example 73]	24.8	
Cc1cc(-c2nc(-c3ccc(Cl)c(Cl)c3)n3c2CCO[C@H](C)C3)ccn1 [Example 66]	12.6	
Cc1cc(-c2nc(-c3ccc(Cl)c(Cl)c3)n3c2CCO[C@H](CF)C3)cc(C)n1 [Example 76]	20.9	
Cc1cc(-c2nc(-c3ccc(OC(F)(F)F)c(C)c3)n3c2CCOCC3)ccn1 [Example 118]	10.9	
COc1cc(-c2nc(-c3ccnc(CF)c3)c3n2C[C@@H](C)OCC3)ccc1Cl [Example 12, (R)-3-(4-chloro-3-methoxyphenyl)-1-(2-(fluoromethyl)pyridin-4-yl)-6-methyl-5,6,8,9-tetrahydroimidazo[1,5-d][1,4]oxazepine]	28.3	
Cc1cc(-c2nc(-c3ccc(F)c(OCC(C)C)c3)n3c2CCOCC3)cc(C)n1 [Example 95]	49.5	
Cc1cc(-c2nc(-c3ccc(Cl)c(OCC(F)(F)F)c3)n3c2CCOCC3)cc(C)n1 [Example 3, 3-(4-chloro-3-(2,2,2-trifluoroethoxy)phenyl)-1-(2,6-dimethylpyridin-4-yl)-5,6,8,9-tetrahydroimidazo[1,5-d][1,4]oxazepine]	13.9	
